The record followed here is patent US5688807A, “Method for treating 5HT2B receptor related conditions” (Eli Lilly and Company, priority 1995, dated 1997).

In one assay the target is T1, Human 5-HT2B (Homo sapiens, UniProt P41595).
T1 construct: expressed in transfected cells
Kind of assay: [3H]Serotonin radioligand binding, human 5-HT2B.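 Note: competition of tritiated serotonin binding to cell membranes, bound radioactivity on filters counted by liquid scintillation, IC50 from logistic fits converted to Ki with the Cheng-Prusoff equation.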 To be noted: Cell assays use Human Cells; read-out: Ki, 5HT2B Cells.

In the next assay the target is Human 5-HT2A (Homo sapiens, UniProt P28223). Kind of assay: [125I]DOI radioligand binding, human 5-HT2A.
Chain of Human 5-HT2A (P28223 whole entry): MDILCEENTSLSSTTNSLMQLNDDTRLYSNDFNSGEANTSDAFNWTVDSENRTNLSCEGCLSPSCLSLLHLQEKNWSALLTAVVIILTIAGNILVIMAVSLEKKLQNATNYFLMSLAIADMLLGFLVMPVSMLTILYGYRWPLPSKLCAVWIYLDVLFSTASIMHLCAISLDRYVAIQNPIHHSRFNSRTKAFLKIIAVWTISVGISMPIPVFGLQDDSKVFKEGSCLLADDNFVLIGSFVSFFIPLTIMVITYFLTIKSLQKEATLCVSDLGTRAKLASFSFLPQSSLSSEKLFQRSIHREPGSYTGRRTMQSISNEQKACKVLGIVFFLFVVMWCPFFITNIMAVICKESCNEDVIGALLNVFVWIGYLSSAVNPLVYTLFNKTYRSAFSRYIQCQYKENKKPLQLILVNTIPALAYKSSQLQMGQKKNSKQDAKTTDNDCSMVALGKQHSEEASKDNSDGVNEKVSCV
A further assay has as its target T2, 5HT2C (Homo sapiens, UniProt P28335).
T2 construct: expressed in transfected cells
T2 sequence (P28335 33-458): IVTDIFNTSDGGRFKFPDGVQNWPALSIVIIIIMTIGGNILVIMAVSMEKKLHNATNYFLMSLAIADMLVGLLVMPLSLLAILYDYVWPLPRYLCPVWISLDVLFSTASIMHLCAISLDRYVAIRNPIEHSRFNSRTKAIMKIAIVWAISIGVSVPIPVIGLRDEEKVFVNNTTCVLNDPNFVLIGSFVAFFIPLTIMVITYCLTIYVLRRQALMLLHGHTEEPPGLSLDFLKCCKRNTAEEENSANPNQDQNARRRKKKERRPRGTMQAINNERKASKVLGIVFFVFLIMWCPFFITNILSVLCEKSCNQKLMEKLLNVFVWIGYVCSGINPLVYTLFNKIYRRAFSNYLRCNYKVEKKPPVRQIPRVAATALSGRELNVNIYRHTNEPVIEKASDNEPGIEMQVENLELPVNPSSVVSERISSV
Kind of assay: Human cell assay, 5HT2C cells. In kind it is binding. Particulars: Cell assays use Human Cells. The method, then: Compounds of this invention were tested using substantially the procedure describe in the Radioligand assay supra. and are summarized in Table I infra. The values in Table I are expressed as Ki values calculated as described supra. The blank values in Table I indicate that the compound was not tested in the corresponding assay.

In another assay the target is rat 5-HT2B receptor (Rattus norvegicus, UniProt P30994). Kind of assay: biochemical. Particulars: Radioligand assay; Table III. In kind it is binding.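 Note: displacement of [3H]5-HT from membranes of suspension cells carrying cloned rat 5-HT2B receptor, incubated 15 min at 37 °C or 2 h at 0 °C, filter-bound radioactivity counted by scintillation.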
Chain of rat 5-HT2B receptor (P30994 whole entry): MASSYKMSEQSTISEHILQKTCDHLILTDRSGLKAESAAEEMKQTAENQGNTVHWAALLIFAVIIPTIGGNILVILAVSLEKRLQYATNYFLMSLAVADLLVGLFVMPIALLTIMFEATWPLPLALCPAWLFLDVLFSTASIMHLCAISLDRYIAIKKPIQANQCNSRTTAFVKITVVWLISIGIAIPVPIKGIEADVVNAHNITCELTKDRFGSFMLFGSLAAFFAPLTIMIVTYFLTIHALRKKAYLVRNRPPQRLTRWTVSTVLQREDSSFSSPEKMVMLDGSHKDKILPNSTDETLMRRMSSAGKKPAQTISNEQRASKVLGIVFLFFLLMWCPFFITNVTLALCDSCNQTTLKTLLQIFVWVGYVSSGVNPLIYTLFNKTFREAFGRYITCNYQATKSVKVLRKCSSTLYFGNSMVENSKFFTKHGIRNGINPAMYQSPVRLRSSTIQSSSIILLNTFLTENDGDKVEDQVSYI
For a further assay, the system named is colon. Kind of assay: In vivo inhibition of serotonin-induced colonic motility in anesthetized rats. To be noted: Rattus norvegicus, iv; anesthetized Sprague-Dawley rats. The method, then:
Sprague-Dawley Rats (250-300 g) were fasted overnight. The rats were anesthetized with urethane ([…]) delivered intraperitoneally. The abdominal cavity was opened and strain guage transducers were sewn on the antimesenteric border of the colon. The transducers were oriented to record circular muscle contractions. The animal body temperature was maintained by a heating pad. An intravenous catheter was inserted into the jugular vein for drug administration. The carotid blood pressure was also monitored. Output of the strain guage transducers was graphed on a Beckman Dynograph. Baseline motility was monitored for 30 minutes. At the end of the 30 minute period, a vehicle control dose was administered and motility was recorded for an additional 15 minutes. A serotonin dose response was developed. Successively higher doses of serotonin were administered at 15 minute intervals. An ED50 dose was calculated, which was the dose producing half maximal contraction. In antagonist experiments, historical ED50 dose was administered to validate the experimental set up. Next, a dose of antagonist was given. The motility was monitored for 15 minutes. […] Motility was evaluated by measuring the number of contractions and multiplying them by the amplitude of contractions over a set time period to provide a Motility Index. The percent inhibition was calculated from the vehicle (no antagonist) treated group. […]

For a further assay, the system named is distal colon. Kind of assay: Functional in vitro assay: antagonism of serotonin contraction of rat distal colon longitudinal muscle. Particulars: vs serotonin. From the text:
Functional In vitro Assay:
Sprague-Dawley rats (200-250g; Laboratory Supply, Indianapolis, Ind.) were sacrificed by cervical dislocation and 8 cm segment of distal colon was removed and washed in ice cold modified Kreb's solution of the following composition (millimolar): Nacl, 118.2; Kcl, 4.6; Cacl2. H2 O, 1.6; KH2 PO4, 1.2; MgSO4, 1.2; dextrose, 10.0; and NaHCO3, 24.8. The colon was mounted on a glass rod and the longitudinal muscle layer with attached myenteric plexi was removed and mounted in organ baths, containing above described Kreb's solution maintained at 37° C. and equilibrated with 95% O2 and 5% CO2. Tissues were placed under 2 g tension and allowed to stabilize for 1 hour. Isometric contractions were recorded as changes in grams of force using grass FT03 transducers and MI^2 - computerized dynograph system. Cumulative concentration-response curves for serotonin were obtained by a stepwise increase in concentration after washing out the preceding concentration for 10-15 minutes. Each agonist concentration remained in contact with the tissue for 5 minutes. Maximum response to each concentration was determined and digitized. EC50 values were taken as the concentration of agonist that produced half maximal contraction. After control responses were obtained, tissues were incubated with an appropriate concentration of antagonist for 15 minutes. Response to serotonin were then repeated in the presence of an antagonist. Concentration-response utilized only one concentration of antagonist per tissue. Apparent antagonist dissociation constants (KB) were determined for each concentration of antagonist according to the following equation:
KB =[B]/(dose ratio-1), where [B] is the concentration of the antagonist and dose ratio is the ED50 of the agonist in the presence of antagonist divided by the control ED50. The results were expressed as the negative logarithm of the KB (i.e., -log KB) (Br. J. Pharmacol. Methods 4:4165, (1980).
The functional in vitro method described supra. was used to test compounds of this invention. Values are expressed as pKi and pA2 (-log KB). The following table illustrates the results obtained when the compounds were tested using the Radioligand assay supra. (pKi) and the functional in vitro method described supra. (pA2)

Structures can show the parent of a compound that is named as a salt.

T1 sequence (P41595 whole entry): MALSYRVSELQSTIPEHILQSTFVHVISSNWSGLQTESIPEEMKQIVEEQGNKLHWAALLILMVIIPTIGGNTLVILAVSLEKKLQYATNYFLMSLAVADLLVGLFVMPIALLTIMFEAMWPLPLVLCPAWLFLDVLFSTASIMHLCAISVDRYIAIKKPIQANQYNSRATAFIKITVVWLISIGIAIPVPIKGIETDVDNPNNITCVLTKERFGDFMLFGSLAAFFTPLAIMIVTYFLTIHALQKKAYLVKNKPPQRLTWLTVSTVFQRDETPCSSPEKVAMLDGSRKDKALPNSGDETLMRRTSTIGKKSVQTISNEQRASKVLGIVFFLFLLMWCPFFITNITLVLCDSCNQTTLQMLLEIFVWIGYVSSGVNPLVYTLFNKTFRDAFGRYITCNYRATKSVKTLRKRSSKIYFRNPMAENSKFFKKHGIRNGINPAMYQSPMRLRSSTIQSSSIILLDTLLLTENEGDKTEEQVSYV

As a reminder, the Ki is a measure of affinity in units of concentration, obtained from inhibition or displacement. Take `Cc1ccc2[nH]c3c(c2c1)[C@@H]1CCCC[C@H]1NC3` (relative stereo) [Example 95, Trans-10-methyl-2,3,4,4a,5,6,7,11c-octahydro-1H-indolo[2,3c]quinoline, hydrochloride]: the Ki on Human 5-HT2B amounted to 840 nM; at Human 5-HT2A it was 3440 nM; at 5HT2C, 2640 nM.
The term pKi denotes the negative decadic logarithm of the Ki, by convention in mol/L. A higher pKi goes with a low Ki. The term ED50 denotes the dose that gives a 50% effect, or the effect in half of the subjects. Read a low ED50 as an effect at a small dose. As for `Cc1cc(Br)c2[nH]c3c(c2c1)CCNC3` [Example 73, 6-methyl-8-bromo-1,2,3,4-tetrahydro-9H-pyrido[3,4b]-indole], on rat 5-HT2B receptor, the pKi is 7.85. The 50% effective dose (ED50) in the assay on colon is 3.2 mg/kg. Moreover, in the assay on distal colon, the “pA2 (-log KB)” value is recorded as 8.9.
As to `Cc1ccc2[nH]c3c(c2c1)[C@@H]1CCCC[C@H]1NC3Cc1cccc2ccccc12` (stereo partly drawn) [Example 105, Trans-10-methyl-6-(1-naphthylmethyl)-2,3,4,4a,5,6,7,11c-octahydro-1H-indolo[2,3-c]quinoline, hydrochloride], the values for the Ki at Human 5-HT2B, on Human 5-HT2A and on 5HT2C were 22.1 nM, 86.5 nM and 195 nM, respectively.
Take `COc1cc2c(cc1OC)CC1(CC2)N[C@@H]2CCCC[C@H]2c2c1[nH]c1ccc(C)cc21` (stereo partly drawn) [Example 107, Trans-spiro-6,6-[2-(3,4-dimethoxy)-1,2,3,4-tetrahydronaphthyl]-10-methyl-2,3,4,4a,5,6,7,11a-octahydro-1H-indolo[2,3-c]quinidine, hydrochloride]: the Ki on Human 5-HT2B was 178 nM; on Human 5-HT2A, 363 nM; at 5HT2C it was 325 nM.
